The text below walks through data of patent US20260206755A1, “COMPOUNDS AND COMPOSITIONS HAVING KNOCK-DOWN OR BLOOD FEED INHIBITION ACTIVITY AGAINST INSECT PESTS” (priority 2017, published 2026).

Read-outs that look alike come from different tables or passages of the source.

For this data set, the system named is Anopheles stephensi. As to the kind of experiment: Anopheles stephensi treated well plate contact test: knockdown and mortality. Format: in vivo. Here is the method: Examples Anopheles stephensi (Indian Malaria Mosquito)
The individual wells of twelve (12) well tissue culture plates were treated with 200 μl of an ethanol solution containing a test compound of Table 1 or Table 2 at a defined concentration and repeated with also 200 μl of an ethanol solution containing in addition 2 ppm TFNA-AM. Once the deposits were dry, five non-blood fed adult female Anopheles stephensi (between two to five day old) were added to each well, and sustained with a 10% sucrose solution in a cotton wool plug. Assessment of the knockdown after 1 hour, and mortality after 24 and 48 hours was carried out.
In case of multiple tests, the mean value is reported.

Setting [1] is: Anopheles stephensi, test compound 0.2 ppm, without TFNA-AM, after 24 hours, read-out: mortality % 24, without TFNA-AM.
The mark [2] stands for this setting: Anopheles stephensi, test compound 0.2 ppm, without TFNA-AM, after 48 hours, read-out: mortality % 48, without TFNA-AM.
[3] abbreviates: Anopheles stephensi, test compound 0.2 ppm, without TFNA-AM, knockdown after 1 hour, read-out: Knock Down, without TFNA-AM.
The mark [4] stands for this setting: Anopheles stephensi, test compound 2 ppm, without TFNA-AM, after 24 hours, read-out: mortality % 24, without TFNA-AM.
Setting [5] is: Anopheles stephensi, test compound 2 ppm, without TFNA-AM, after 48 hours, read-out: mortality % 48, without TFNA-AM.
The mark [6] stands for this setting: Anopheles stephensi, test compound 2 ppm, without TFNA-AM, knockdown after 1 hour, read-out: Knock Down, without TFNA-AM.
Setting [7] is: Anopheles stephensi, test compound 20 ppm, without TFNA-AM, after 24 hours, read-out: mortality % 24, without TFNA-AM.
The mark [8] stands for this setting: Anopheles stephensi, test compound 20 ppm, without TFNA-AM, after 48 hours, read-out: mortality % 48, without TFNA-AM.
[9] abbreviates: Anopheles stephensi, test compound 20 ppm, without TFNA-AM, knockdown after 1 hour, read-out: Knock Down, without TFNA-AM.
The mark [10] stands for this setting: Anopheles stephensi, test compound 200 ppm, without TFNA-AM, after 24 hours, read-out: mortality % 24, without TFNA-AM.
Setting [11] is: Anopheles stephensi, test compound 200 ppm, without TFNA-AM, after 48 hours, read-out: mortality % 48, without TFNA-AM.
Setting [12] is: Anopheles stephensi, test compound 200 ppm, without TFNA-AM, knockdown after 1 hour, adult females, read-out: Knock Down, without TFNA-AM.
The mark [13] stands for this setting: test compound 0.2 ppm plus 2 ppm TFNA-AM, after 48 hours.
Where [14] appears, read: test compound 0.2 ppm plus 2 ppm TFNA-AM, knockdown after 1 hour.
The mark [15] stands for this setting: test compound 2 ppm plus 2 ppm TFNA-AM, after 24 hours.
Setting [16] is: test compound 2 ppm plus 2 ppm TFNA-AM, after 48 hours.
Setting [17] is: test compound 2 ppm plus 2 ppm TFNA-AM, knockdown after 1 hour.
[18] abbreviates: test compound 20 ppm plus 2 ppm TFNA-AM, after 24 hours.
[19] abbreviates: test compound 20 ppm plus 2 ppm TFNA-AM, after 48 hours.
Where [20] appears, read: test compound 20 ppm plus 2 ppm TFNA-AM, knockdown after 1 hour.
[21] abbreviates: test compound 200 ppm plus 2 ppm TFNA-AM, after 24 hours.
The mark [22] stands for this setting: test compound 200 ppm plus 2 ppm TFNA-AM, after 48 hours.
Where [23] appears, read: test compound 200 ppm plus 2 ppm TFNA-AM, knockdown after 1 hour.
Setting [24] is: test compound 0.2 ppm plus 2 ppm TFNA-AM, after 24 hours.

As usually defined, the mortality is the share of the test organisms that died. On to `CN/C(=N\[N+](=O)[O-])NCc1cnc(Cl)s1` [Clothianidin], for which the mortality at 0.2 ppm by setting is: under setting [1], 0%; under setting [2], 0%. Also, the pest or weed control at 0.2 ppm under setting [3] was determined as 0%. The mortality at 2 ppm under setting [4] was 0% and the mortality at 2 ppm under setting [5] stood at 0%. Further, the pest or weed control at 2 ppm under setting [6] is 0%. The mortality at 20 ppm under setting [7] is 0% and the mortality at 20 ppm under setting [8] was 20%. Under setting [9], the pest or weed control at 20 ppm came to 0%. The mortality at 200 ppm is, setting by setting: under setting [10], 0%; under setting [11], 20%. Further, the pest or weed control at 200 ppm under setting [12] was found to be 0%. In addition, the “mortality % 48, with TFNA-AM” value reads like this: under setting [13], 0%; under setting [16], 100%; under setting [19], 100%; under setting [22], 100%. In addition, the “Knock Down, with TFNA-AM” value amounted to 100% under setting [14], 100% under setting [17], 100% under setting [20] and 100% under setting [23]. Also, the “mortality % 24, with TFNA-AM” value came to 100% under setting [15], 100% under setting [18] and 100% under setting [21].
Consider `CN/C(=N/CC1CCOC1)N[N+](=O)[O-]` (stereo not drawn) [Dinotefuran], for which the mortality at 0.2 ppm worked out at 0% under setting [1] and 0% under setting [2]. In addition, the pest or weed control at 0.2 ppm under setting [3] came to 0%. The mortality at 2 ppm reads like this: under setting [4], 40%; under setting [5], 40%. For the same molecule, the pest or weed control at 2 ppm under setting [6] worked out at 0%. The mortality at 20 ppm came out at 40% under setting [7] and 80% under setting [8]. The pest or weed control at 20 ppm under setting [9] worked out at 0%. The mortality at 200 ppm by setting is: under setting [10], 100%; under setting [11], 100%. The pest or weed control at 200 ppm under setting [12] amounted to 40%. Further, the “mortality % 48, with TFNA-AM” value under setting [13] was determined as 60%; the “mortality % 48, with TFNA-AM” value under setting [16] was determined as 60%; the “mortality % 48, with TFNA-AM” value under setting [19] was found to be 100%; the “mortality % 48, with TFNA-AM” value under setting [22] turned out to be 100%. For the same molecule, the “Knock Down, with TFNA-AM” value under setting [14] stood at 100%; the “Knock Down, with TFNA-AM” value under setting [17] was 100%; the “Knock Down, with TFNA-AM” value under setting [20] turned out to be 100%; the “Knock Down, with TFNA-AM” value under setting [23] was 100%. The “mortality % 24, with TFNA-AM” value is, setting by setting: under setting [18], 100%; under setting [21], 100%.
Take `CO/C=C(/C(=O)OC)c1ccccc1Oc1cc(C(F)(F)F)ccn1` [Compound 49]: the mortality at 0.2 ppm is, setting by setting: under setting [1], 0%; under setting [2], 0%. Besides, the pest or weed control at 0.2 ppm under setting [3] worked out at 0%. For the same molecule, the mortality at 2 ppm is, setting by setting: under setting [4], 60%; under setting [5], 60%. In addition, under setting [6], the pest or weed control at 2 ppm was determined as 0%. Besides, the mortality at 20 ppm is, setting by setting: under setting [7], 100%; under setting [8], 100%. The pest or weed control at 20 ppm under setting [9] came out at 50%. Further, the mortality at 200 ppm reads like this: under setting [10], 100%; under setting [11], 100%. The pest or weed control at 200 ppm under setting [12] was found to be 50%. In addition, the “mortality % 24, with TFNA-AM” value was 50% under setting [24], 90% under setting [15], 100% under setting [18] and 100% under setting [21]. The “mortality % 48, with TFNA-AM” value under setting [13] came to 10%; the “mortality % 48, with TFNA-AM” value under setting [16] turned out to be 90%; the “mortality % 48, with TFNA-AM” value under setting [19] is 90%; the “mortality % 48, with TFNA-AM” value under setting [22] is on record as 90%. Besides, the “Knock Down, with TFNA-AM” value was 90% under setting [14], 100% under setting [17], 100% under setting [20] and 100% under setting [23].
Take `CCOc1ccc(C(C)(C)COCc2cccc(Oc3ccccc3)c2)cc1` [Etofenprox]: the mortality at 0.02 ppm is, setting by setting: (Anopheles stephensi, test compound 0.02 ppm, without TFNA-AM, after 24 hours, read-out: mortality % 24, without TFNA-AM) 0%; (Anopheles stephensi, test compound 0.02 ppm, without TFNA-AM, after 48 hours, read-out: mortality % 48, without TFNA-AM) 0%. Where the note is “Anopheles stephensi, test compound 0.02 ppm, without TFNA-AM, knockdown after 1 hour, read-out: Knock Down, without TFNA-AM”, the pest or weed control at 0.02 ppm worked out at 0%. The mortality at 0.2 ppm runs as follows: under setting [1], 20%; under setting [2], 20%. Further, under setting [3], the pest or weed control at 0.2 ppm worked out at 0%. The mortality at 2 ppm by setting is: under setting [4], 80%; under setting [5], 80%. Further, under setting [6], the pest or weed control at 2 ppm came out at 0%. Besides, the mortality at 20 ppm under setting [7] is 100% and the mortality at 20 ppm under setting [8] came out at 100%. The pest or weed control at 20 ppm under setting [9] is 60%. Also, the “mortality % 24, with TFNA-AM” value stood at 60% (test compound 0.02 ppm plus 2 ppm TFNA-AM, after 24 hours); 100% under setting [24]; 100% under setting [15]; 100% under setting [18]. The “mortality % 48, with TFNA-AM” value was 60% (test compound 0.02 ppm plus 2 ppm TFNA-AM, after 48 hours); 100% under setting [13]; 100% under setting [16]; 100% under setting [19]. Besides, the “Knock Down, with TFNA-AM” value reads like this: (test compound 0.02 ppm plus 2 ppm TFNA-AM, knockdown after 1 hour) 100%; under setting [14], 100%; under setting [17], 100%; under setting [20], 100%.
With `CO/C=C(/C(=O)OC)c1ccccc1COc1cccc(C(F)(F)F)n1` [Picoxystrobin], the “mortality % 24, with TFNA-AM” value came out at 30% under setting [24], 80% under setting [15], 100% under setting [18] and 100% under setting [21]. Moreover, the “mortality % 48, with TFNA-AM” value reads like this: under setting [13], 20%; under setting [16], 80%; under setting [19], 100%; under setting [22], 100%. Moreover, the “Knock Down, with TFNA-AM” value by setting is: under setting [14], 100%; under setting [17], 100%; under setting [20], 100%; under setting [23], 100%. Moreover, the “mortality % 24, without TFNA-AM” value (test compound 0.2 ppm, without TFNA-AM, after 24 hours) was 0%; the “mortality % 24, without TFNA-AM” value (test compound 2 ppm, without TFNA-AM, after 24 hours) is given as 50%; the “mortality % 24, without TFNA-AM” value (test compound 20 ppm, without TFNA-AM, after 24 hours) came to 90%; the “mortality % 24, without TFNA-AM” value (test compound 200 ppm, without TFNA-AM, after 24 hours) is 100%. Moreover, the “mortality % 48, without TFNA-AM” value worked out at 0% (test compound 0.2 ppm, without TFNA-AM, after 48 hours); 0% (test compound 2 ppm, without TFNA-AM, after 48 hours); 100% (test compound 20 ppm, without TFNA-AM, after 48 hours); 100% (test compound 200 ppm, without TFNA-AM, after 48 hours). Besides, the “Knock Down, without TFNA-AM” value is reported as 0% (test compound 0.2 ppm, without TFNA-AM, knockdown after 1 hour); 0% (test compound 2 ppm, without TFNA-AM, knockdown after 1 hour); 30% (test compound 20 ppm, without TFNA-AM, knockdown after 1 hour); 100% (test compound 200 ppm, without TFNA-AM, knockdown after 1 hour, adult females).
Consider `CN1COCN(Cc2cnc(Cl)s2)/C1=N\[N+](=O)[O-]` [Thiamethoxam], for which the mortality at 0.2 ppm under setting [1] was determined as 0% and the mortality at 0.2 ppm under setting [2] worked out at 0%. Besides, the pest or weed control at 0.2 ppm under setting [3] turned out to be 0%. In addition, the mortality at 2 ppm under setting [4] came to 40% and the mortality at 2 ppm under setting [5] was determined as 40%. For the same molecule, the pest or weed control at 2 ppm under setting [6] was found to be 0%. Further, the mortality at 20 ppm stood at 60% under setting [7] and 40% under setting [8]. Under setting [9], the pest or weed control at 20 ppm is 0%. Moreover, the mortality at 200 ppm was determined as 80% under setting [10] and 80% under setting [11]. The pest or weed control at 200 ppm under setting [12] was found to be 0%. The “mortality % 24, with TFNA-AM” value reads like this: under setting [24], 20%; under setting [21], 100%. Further, the “Knock Down, with TFNA-AM” value is, setting by setting: under setting [14], 100%; under setting [17], 100%; under setting [20], 100%; under setting [23], 100%. For the same molecule, the “mortality % 48, with TFNA-AM” value is, setting by setting: under setting [16], 100%; under setting [19], 100%; under setting [22], 100%.
